According to US7671079B2, “Sulfonyltetrahydro-3H-benzo(e)indole-8-amine compounds as 5-hydroxytryptamine-6 ligands” (Wyeth LLC, priority 2003, dated 2010):

Target: T1, human cloned 5-HT6 receptors (Homo sapiens, UniProt P50406)
T1 construct: expressed in transfected cells; host or cells: Hela cells
Assay: 5-HT6 binding affinity, [3H]-LSD displacement on membranes of Hela cells expressing human cloned 5-HT6 receptors
Details: [3H]-LSD 3.0 nM, Hela cell membranes, 120 min at room temperature
Protocol: The affinity of test compounds for the serotonin 5-HT6 receptor is evaluated in the following manner. Cultured Hela cells expressing human cloned 5-HT6 receptors are harvested and centrifuged at low speed (1,000×g) for 10.0 min to remove the culture media. The harvested cells are suspended in half volume of fresh physiological phosphate buffered saline solution and recentrifuged at the same speed. This operation is repeated. The collected cells are then homogenized in ten volumes of 50 mM Tris.HCl (pH 7.4) and 0.5 mM EDTA. The homogenate is centrifuged at 40,000×g for 30.0 min and the precipitate is collected. The obtained pellet is resuspended in 10 volumes of Tris.HCl buffer and recentrifuged at the same speed. The final pellet is suspended in a small volume of Tris.HCl buffer and the tissue protein content is determined in aliquots of 10-25 μl volumes. Bovine Serum Albumin is used as the standard in the protein determination according to the method described in Lowry et al., J. Biol. Chem., 193:265 (1951). The volume of the suspended cell membranes is adjusted to give a tissue protein concentration of 1.0 mg/ml of suspension. The prepared membrane suspension (10 times concentrated) is aliquoted in 1.0 ml volumes and stored at −70° C. until used in subsequent binding experiments.
Binding experiments are performed in a 96 well microtiter plate format, in a total volume of 200 μl. […] The test compounds are added in 20.0 μl volume.
The reaction is allowed to proceed in the dark for 120 min at room temperature, at which time, the bound ligand-receptor complex is filtered off on a 96 well unifilter with a Packard Filtermate® 196 Harvester. The bound complex caught on the filter disk is allowed to air dry and the radioactivity is measured in a Packard TopCount® equipped with six photomultiplier detectors, after the addition of 40.0 μl Microscint®-20 scintillant to each shallow well. The unifilter plate is heat-sealed and counted in a PackardTopCount® with a tritium efficiency of 31.0%.
Binding in the presence of varying concentrations of test compound is expressed as a percentage of specific binding in the absence of test compound. The results are plotted as log % bound versus log concentration of test compound. […] A linear regression line of data points is plotted, from which the IC50 value is determined and the Ki value is determined based upon the following equation: Ki=IC50/(1+L/KD) where L is the concentration of the radioactive ligand used and KD is the dissociation constant of the ligand for the receptor, both expressed in nM.

T1 sequence (P50406 whole entry): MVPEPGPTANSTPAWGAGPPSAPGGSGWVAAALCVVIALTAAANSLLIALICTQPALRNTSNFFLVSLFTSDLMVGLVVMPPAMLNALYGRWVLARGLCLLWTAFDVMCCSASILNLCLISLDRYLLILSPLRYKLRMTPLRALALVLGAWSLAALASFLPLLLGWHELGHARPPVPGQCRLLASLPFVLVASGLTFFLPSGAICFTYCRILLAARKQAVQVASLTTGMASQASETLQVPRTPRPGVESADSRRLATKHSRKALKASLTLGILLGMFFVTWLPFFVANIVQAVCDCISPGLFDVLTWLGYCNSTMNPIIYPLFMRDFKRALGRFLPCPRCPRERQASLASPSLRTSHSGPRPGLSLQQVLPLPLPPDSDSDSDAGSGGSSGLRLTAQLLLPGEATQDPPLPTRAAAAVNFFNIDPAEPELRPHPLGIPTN

| Molecule | Ki [nM] |
| --- | --- |
| 3-[(2,3-dichlorophenyl)sulfonyl]-N,N-dimethyl-6,7,8,9-tetrahydro-3H-benzo[e]indol-8-amine [Example 16] | 6 |
| 3-[(2,6-dichloroimidazo[2,1-b][1,3]thiazol-5-yl)sulfonyl]-N,N-dimethyl-6,7,8,9-tetrahydro-3H-benzo[e]indol-8-amine [Example 19] | 5 |
| CN(C)C1CCc2ccc3c(ccn3S(=O)(=O)c3ccccc3)c2C1 (stereo not shown) [Example 8, N,N-Dimethyl-3-(Phenylsulfonyl)-6,7,8,9-tetrahydro-3H-benzo[e]indol-8-amine] | 1 |
| CN(C)C1CCc2ccc3c(ccn3S(=O)(=O)c3ccc(OC(F)(F)F)cc3)c2C1 (stereo not shown) [Example 9] | 79 |
| CN(C)C1CCc2ccc3c(ccn3S(=O)(=O)c3ccc(F)cc3)c2C1 (stereo not shown) [Example 11, 3-[(4-fluorophenyl)sulfonyl]-N,N-dimethyl-6,7,8,9-tetrahydro-3H-benzo[e]indol-8-amine] | 19 |
| CN(C)C1CCc2ccc3c(ccn3S(=O)(=O)c3ccc(C(F)(F)F)cc3Cl)c2C1 (stereo not shown) [Example 12] | 55 |
| CN(C)C1CCc2ccc3c(ccn3S(=O)(=O)c3ccc(F)c(F)c3)c2C1 (stereo not shown) [Example 13, 3-[(3,4-difluorophenyl)sulfonyl]-N,N-dimethyl-6,7,8,9-tetrahydro-3H-benzo[e]indol-8-amine] | 9 |
| CN(C)C1CCc2ccc3c(ccn3S(=O)(=O)c3ccccc3Cl)c2C1 (stereo not shown) [Example 14, 3-[(2-chlorophenyl)sulfonyl]-N,N-dimethyl-6,7,8,9-tetrahydro-3H-benzo[e]indol-8-amine] | 2 |
| CN(C)C1CCc2ccc3c(ccn3S(=O)(=O)c3cccc(Cl)c3)c2C1 (stereo not shown) [Example 15, 3-[(3-chlorophenyl)sulfonyl]-N,N-dimethyl-6,7,8,9-tetrahydro-3H-benzo[e]indol-8-amine] | 2 |
| CN(C)C1CCc2ccc3c(ccn3S(=O)(=O)c3ccc(F)cc3F)c2C1 (stereo not shown) [Example 17, 3-[(2,4-diflorophenyl)sulfonyl]-N,N-dimethyl-6,7,8,9-tetrahydro-3H-benzo[e]indol-8-amine] | 8 |
| CN(C)C1CCc2ccc3c(ccn3S(=O)(=O)c3c(Cl)nc4sccn34)c2C1 (stereo not shown) [Example 18, 3-[(6-chloroimidazo[2,1-b][1,3]thiazol-5-yl)sulfonyl]-N,N-dimethyl-6,7,8,9-tetrahydro-3H-benzo[e]indol-8-amine] | 6 |
| Cc1noc(C)c1S(=O)(=O)n1ccc2c3c(ccc21)CCC(N(C)C)C3 (stereo not shown) [Example 20] | 59 |
| Cc1ccc(S(=O)(=O)n2ccc3c4c(ccc32)CCC(NC2CC2)C4)cc1 (stereo not shown) [Example 21] | 103 |
| Cc1ccc(S(=O)(=O)n2ccc3c4c(ccc32)CCC(NC2CCC2)C4)cc1 (stereo not shown) [Example 24] | 36 |
| CCCNC1CCc2ccc3c(ccn3S(=O)(=O)c3ccc(C)cc3)c2C1 (stereo not shown) [Example 25] | 12 |
| N,N-dimethyl-3-(2-naphthylsulfonyl)-6,7,8,9-tetrahydro-3H-benzo[e]indol-8-amine [Example 10] | 13 |
